# Measured values published in US11111251B2, “Positive allosteric modulators of the muscarinic acetylcholine receptor M1” (Vanderbilt University, priority 2016, dated 2021).
# Target: T1, human mAChR M1 (Homo sapiens, UniProt P11229)
# T1 sequence (P11229 1-460): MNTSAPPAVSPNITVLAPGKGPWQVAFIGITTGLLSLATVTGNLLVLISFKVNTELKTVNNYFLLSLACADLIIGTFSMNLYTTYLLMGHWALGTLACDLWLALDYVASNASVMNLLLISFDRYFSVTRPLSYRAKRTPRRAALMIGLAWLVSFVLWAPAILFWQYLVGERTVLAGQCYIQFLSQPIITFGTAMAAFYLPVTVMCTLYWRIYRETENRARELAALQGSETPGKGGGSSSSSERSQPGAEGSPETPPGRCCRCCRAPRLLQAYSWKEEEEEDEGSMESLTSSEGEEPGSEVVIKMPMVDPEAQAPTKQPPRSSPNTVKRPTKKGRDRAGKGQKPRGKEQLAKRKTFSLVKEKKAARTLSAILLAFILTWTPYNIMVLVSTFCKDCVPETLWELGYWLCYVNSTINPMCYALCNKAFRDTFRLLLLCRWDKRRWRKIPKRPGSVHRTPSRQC
# Test: mAChR M1 cell-based functional assay: calcium mobilization, positive allosteric modulator mode (increase in EC20 acetylcholine response)
# Settings: Table 2, human M1; for EC50: read-out: Human M1 EC50; for Emax: read-out: Human M1 Emax (%)
# Summary of the method: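 PAM potency reflects the concentration-dependent increase in calcium response to an EC20 acetylcholine challenge, given 144 s into a 300 s read after compound addition at 4 s (EC80 follows at 230 s). Cells were hM1-expressing CHO-K1, loaded 50 min with Fluo-4 AM. Curves used 11 points at 1:3 dilutions and four-parameter logistic fitting.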
EC50 [nM],Emax [%],SMILES
12.7,68.7,"Cn1cc(-c2ccc(Cc3cc(C(=O)N[C@@H]4CCCC[C@H]4O)nc4ccsc34)cc2)nn1 [Compound 155, N-[(1R,2R)-2-hydroxycyclohexyl]-7-[[4-(1-methyltriazol-4-yl)phenyl]methyl]thieno[3,2-b]pyridine-5-carboxamide]"
260,89.2,"CO[C@@H]1CCCC[C@H]1NC(=O)c1cc(Cc2ccc(-c3cn(C)nn3)cc2)c2sccc2n1 [Compound 156, N-[(1R,2R)-2-methoxycyclohexyl]-7-[[4-(1-methyltriazol-4-yl)phenyl]methyl]thieno[3,2-b]pyridine-5-carboxamide]"
24.2,70,"Cn1cc(-c2ccc(Cc3cc(C(=O)N[C@@H]4CCCCC[C@H]4O)nc4ccsc34)cc2)nn1 [Compound 157, N-[(1R,2R)-2-hydroxycycloheptyl]-7-[[4-(1-methyltriazol-4-yl)phenyl]methyl]thieno[3,2-b]pyridine-5-carboxamide]"
343,89.7,"Cc1nc(-c2ccc(Cc3cc(C(=O)NC4CC5(COC5)C4)nc4ccsc34)cc2)co1 [Compound 158, 7-[[4-(2-methyloxazol-4-yl)phenyl]methyl]-N-(2-oxaspiro[3.3]heptan-6-yl)thieno[3,2-b]pyridine-5-carboxamide]"
141,80.5,"Cc1nc(-c2ccc(Cc3cc(C(=O)N[C@@H]4CCC[C@H]4O)nc4ccsc34)cc2)co1 [Compound 159, N-[(1R,2R)-2-hydroxycyclopentyl]-7-[[4-(2-methyloxazol-4-yl)phenyl]methyl]thieno[3,2-b]pyridine-5-carboxamide]"
3930,77.5,"Cc1nc(-c2ccc(Cc3cc(C(=O)N[C@@H]4CCOC4)nc4ccsc34)cc2)co1 [Compound 160, 7-[[4-(2-methyloxazol-4-yl)phenyl]methyl]-N-[(3R)-tetrahydrofuran-3-yl]thieno[3,2-b]pyridine-5-carboxamide]"
3510,78.8,"Cc1nc(-c2ccc(Cc3cc(C(=O)N[C@H]4CCOC4)nc4ccsc34)cc2)co1 [Compound 161, 7-[[4-(2-methyloxazol-4-yl)phenyl]methyl]-N-[(3S)-tetrahydrofuran-3-yl]thieno[3,2-b]pyridine-5-carboxamide]"
5040,74,"Cc1nc(-c2ccc(Cc3cc(C(=O)NC4CCCCC4)nc4ccsc34)cc2)co1 [Compound 162, N-cyclohexyl-7-[[4-(2-methyloxazol-4-yl)phenyl]methyl]thieno[3,2-b]pyridine-5-carboxamide]"
2530,75.4,"Cc1nc(-c2ccc(Cc3cc(C(=O)NC4CCCN(C)C4)nc4ccsc34)cc2)co1 (stereo not shown) [Compound 163, 7-[[4-(2-methyloxazol-4-yl)phenyl]methyl]-N-(1-methyl-3-piperidyl)thieno[3,2-b]pyridine-5-carboxamide]"
2550,74.6,"Cc1nc(-c2ccc(Cc3cc(C(=O)NC4CCN(C)CC4)nc4ccsc34)cc2)co1 [Compound 164, 7-[[4-(2-methyloxazol-4-yl)phenyl]methyl]-N-(1-methyl-4-piperidyl)thieno[3,2-b]pyridine-5-carboxamide]"
> 10000,70.8,"Cc1nc(-c2ccc(Cc3cc(C(=O)N(C)C4CCOCC4)nc4ccsc34)cc2)co1 [Compound 165, N-methyl-7-[[4-(2-methyloxazol-4-yl)phenyl]methyl]-N-tetrahydropyran-4-yl-thieno[3,2-b]pyridine-5-carboxamide]"
16.8,81.6,"Cc1nc(-c2ccc(Cc3cc(C(=O)N[C@@H]4CCOC[C@H]4O)nc4ccsc34)cc2)co1 [Compound 166, N-[(3S,4R)-3-hydroxytetrahydropyran-4-yl]-7-[[4-(2-methyloxazol-4-yl)phenyl]methyl]thieno[3,2-b]pyridine-5-carboxamide]"
25.3,90.4,"Cc1nc(-c2ccc(Cc3cc(C(=O)N[C@@H]4COCC[C@H]4O)nc4ccsc34)cc2)co1 [Compound 167, N-[(3R,4R)-4-hydroxytetrahydropyran-3-yl]-7-[[4-(2-methyloxazol-4-yl)phenyl]methyl]thieno[3,2-b]pyridine-5-carboxamide]"
84.2,82.6,"Cc1nc(-c2ccc(Cc3cc(C(=O)N[C@@H]4CCCC[C@H]4O)nc4ccsc34)cc2)co1 [Compound 168, N-[(1R,2R)-2-hydroxycyclohexyl]-7-[[4-(2-methyloxazol-4-yl)phenyl]methyl]thieno[3,2-b]pyridine-5-carboxamide]"
1360,84.1,"CO[C@@H]1CCCC[C@H]1NC(=O)c1cc(Cc2ccc(-c3coc(C)n3)cc2)c2sccc2n1 [Compound 169, N-[(1R,2R)-2-methoxycyclohexyl]-7-[[4-(2-methyloxazol-4-yl)phenyl]methyl]thieno[3,2-b]pyridine-5-carboxamide]"
150,82.9,"Cc1nc(-c2ccc(Cc3cc(C(=O)N[C@@H]4CCCCC[C@H]4O)nc4ccsc34)cc2)co1 [Compound 170, N-[(1R,2R)-2-hydroxycycloheptyl]-7-[[4-(2-methyloxazol-4-yl)phenyl]methyl]thieno[3,2-b]pyridine-5-carboxamide]"
373,93,"Cc1nc(-c2ccc(Cc3cc(C(=O)NC4CCCNC4=O)nc4ccsc34)cc2)co1 (stereo not shown) [Compound 171, 7-[[4-(2-methyloxazol-4-yl)phenyl]methyl]-N-(2-oxo-3-piperidyl)thieno[3,2-b]pyridine-5-carboxamide]"
685,88.8,"Cc1nc(-c2ccc(Cc3cc(C(=O)NC4CCCCNC4=O)nc4ccsc34)cc2)co1 (stereo not shown) [Compound 172, 7-[[4-(2-methyloxazol-4-yl)phenyl]methyl]-N-(2-oxoazepan-3-yl)thieno[3,2-b]pyridine-5-carboxamide]"
> 10000,37,"Cc1nc(-c2ccc(Cc3cc(C(=O)N4CCC[C@@H](O)C4)nc4ccsc34)cc2)co1 [Compound 173, [(3R)-3-hydroxy-1-piperidyl]-[7-[[4-(2-methyloxazol-4-yl)phenyl]methyl]thieno[3,2-b]pyridin-5-yl]methanone]"
> 10000,45.1,"Cc1nc(-c2ccc(Cc3cc(C(=O)N4CCC(C)(O)CC4)nc4ccsc34)cc2)co1 [Compound 174, (4-hydroxy-4-methyl-1-piperidyl)-[7-[[4-(2-methyloxazol-4-yl)phenyl]methyl]thieno[3,2-b]pyridin-5-yl]methanone]"
17.7,84.3,"Cn1cc(-c2ccc(Cc3cc(C(=O)NC4CC5(COC5)C4)nc4ccsc34)cc2)nn1 [Compound 175, 7-[[4-(1-methyltriazol-4-yl)phenyl]methyl]-N-(2-oxaspiro[3.3]heptan-6-yl)thieno[3,2-b]pyridine-5-carboxamide]"
362,93.2,"Cc1nc(-c2ccc(Cc3cc(C(=O)N[C@@H]4CC[C@H]4O)nc4ccsc34)cc2)cs1 [Compound 176, N-[(1R,2R)-2-hydroxycyclobutyl]-7-[[4-(2-methylthiazol-4-yl)phenyl]methyl]thieno[3,2-b]pyridine-5-carboxamide]"
> 10000,39.7,"Cc1nc(-c2ccc(Cc3cc(C(=O)NC4(C)COC4)nc4ccsc34)cc2)cs1 [Compound 177, N-(3-methyloxetan-3-yl)-7-[[4-(2-methylthiazol-4-yl)phenyl]methyl]thieno[3,2-b]pyridine-5-carboxamide]"
652,86,"Cc1nc(-c2ccc(Cc3cc(C(=O)NC4CC5(COC5)C4)nc4ccsc34)cc2)cs1 [Compound 178, 7-[[4-(2-methylthiazol-4-yl)phenyl]methyl]-N-(2-oxaspiro[3.3]heptan-6-yl)thieno[3,2-b]pyridine-5-carboxamide]"
3800,65.2,"Cc1nc(-c2ccc(Cc3cc(C(=O)NC4CN(C(C)(C)C)C4)nc4ccsc34)cc2)cs1 [Compound 179, N-(1-tert-butylazetidin-3-yl)-7-[[4-(2-methylthiazol-4-yl)phenyl]methyl]thieno[3,2-b]pyridine-5-carboxamide]"
3300,72.1,"COC1CC(NC(=O)c2cc(Cc3ccc(-c4csc(C)n4)cc3)c3sccc3n2)C1 (stereo not shown) [Compound 180, N-(3-methoxycyclobutyl)-7-[[4-(2-methylthiazol-4-yl)phenyl]methyl]thieno[3,2-b]pyridine-5-carboxamide]"
3820,64,"Cc1nc(-c2ccc(Cc3cc(C(=O)NC4CC(F)C4)nc4ccsc34)cc2)cs1 (stereo not shown) [Compound 181, N-(3-fluorocyclobutyl)-7-[[4-(2-methylthiazol-4-yl)phenyl]methyl]thieno[3,2-b]pyridine-5-carboxamide]"
183,84,"Cc1nc(-c2ccc(Cc3cc(C(=O)N[C@@H]4CCC[C@H]4O)nc4ccsc34)cc2)cs1 [Compound 182, N-[(1R,2R)-2-hydroxycyclopentyl]-7-[[4-(2-methylthiazol-4-yl)phenyl]methyl]thieno[3,2-b]pyridine-5-carboxamide]"
2530,67.3,"Cc1nc(-c2ccc(Cc3cc(C(=O)N[C@@H]4CCOC4)nc4ccsc34)cc2)cs1 [Compound 183, 7-[[4-(2-methylthiazol-4-yl)phenyl]methyl]-N-[(3R)-tetrahydrofuran-3-yl]thieno[3,2-b]pyridine-5-carboxamide]"
